IC50 data for 26 molecules are collected here from patent publication US7846959B2, “Raf modulators and methods of use” (Exelixis, Inc., priority 2004, dated 2010).

The structures appear in SMILES notation.

The target in one assay is B-Raf (Homo sapiens, UniProt P15056). Put plainly: Luciferase-coupled chemiluminescence kinase assay (ATP consumption), B-Raf. It is filed as biochemical. The note with it: read-out: bRaf (inhibition indicated as IC50). The gist of the method: (§1)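 Enzyme ([…]) was pre-incubated with compound for 30 min at room temperature in 20 mM Tris pH 7.5, 10 mM MgCl2, 0.03% TX-100, 1 mM DTT. ATP was added and the reaction ran 3 h at ambient temperature. Remaining ATP was read by luciferase-luciferin chemiluminescence, giving IC50 values.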
Sequence of B-Raf (P15056 whole entry): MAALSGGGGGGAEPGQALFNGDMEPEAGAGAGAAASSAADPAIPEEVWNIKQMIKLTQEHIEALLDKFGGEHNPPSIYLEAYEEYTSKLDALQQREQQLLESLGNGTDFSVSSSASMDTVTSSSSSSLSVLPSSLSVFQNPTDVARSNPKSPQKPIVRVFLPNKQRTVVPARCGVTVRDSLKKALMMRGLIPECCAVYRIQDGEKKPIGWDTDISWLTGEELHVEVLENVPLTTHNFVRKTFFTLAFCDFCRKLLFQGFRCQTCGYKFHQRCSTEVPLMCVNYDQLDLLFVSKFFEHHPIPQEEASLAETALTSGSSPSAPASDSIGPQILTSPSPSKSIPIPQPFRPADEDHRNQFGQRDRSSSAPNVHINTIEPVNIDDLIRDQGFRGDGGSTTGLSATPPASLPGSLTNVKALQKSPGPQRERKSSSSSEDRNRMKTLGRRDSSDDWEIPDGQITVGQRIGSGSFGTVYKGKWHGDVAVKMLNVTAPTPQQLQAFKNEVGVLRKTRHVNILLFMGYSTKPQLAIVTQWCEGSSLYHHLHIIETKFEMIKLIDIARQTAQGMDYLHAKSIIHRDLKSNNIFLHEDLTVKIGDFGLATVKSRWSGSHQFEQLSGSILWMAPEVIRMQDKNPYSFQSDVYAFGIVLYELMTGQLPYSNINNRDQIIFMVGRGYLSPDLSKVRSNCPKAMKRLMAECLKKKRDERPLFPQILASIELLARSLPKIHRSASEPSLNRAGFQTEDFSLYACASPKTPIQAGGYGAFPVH

The next assay has as its target c-Raf (Homo sapiens, UniProt P04049). Put plainly: Luciferase-coupled chemiluminescence kinase assay (ATP consumption), c-Raf. It is filed as biochemical. To be noted: read-out: cRaf-1 (inhibition indicated as IC50). An outline of the steps:
as §1

Sequence of c-Raf (P04049 whole entry): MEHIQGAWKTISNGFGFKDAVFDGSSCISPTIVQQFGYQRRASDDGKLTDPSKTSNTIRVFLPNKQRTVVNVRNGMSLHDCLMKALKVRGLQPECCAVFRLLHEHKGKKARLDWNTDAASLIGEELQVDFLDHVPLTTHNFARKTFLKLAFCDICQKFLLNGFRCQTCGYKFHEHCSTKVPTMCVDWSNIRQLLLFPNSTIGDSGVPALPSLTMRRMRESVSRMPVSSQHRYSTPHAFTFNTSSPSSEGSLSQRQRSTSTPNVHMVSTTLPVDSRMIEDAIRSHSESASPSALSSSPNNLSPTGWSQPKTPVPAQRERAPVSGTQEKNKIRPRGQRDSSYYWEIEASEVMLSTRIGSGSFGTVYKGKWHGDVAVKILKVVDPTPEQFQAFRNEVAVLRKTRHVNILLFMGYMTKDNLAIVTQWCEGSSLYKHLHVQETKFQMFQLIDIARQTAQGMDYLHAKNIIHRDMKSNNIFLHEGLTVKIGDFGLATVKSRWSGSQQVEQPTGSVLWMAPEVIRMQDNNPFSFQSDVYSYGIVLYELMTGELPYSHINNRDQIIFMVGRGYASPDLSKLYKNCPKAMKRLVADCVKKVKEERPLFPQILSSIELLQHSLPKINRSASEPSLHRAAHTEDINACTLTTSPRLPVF

A word on the IC50: it is the concentration that inhibits the measured activity by half. For the molecule `COC(=O)Nc1nc2cc(C3(O)c4ccccc4C(=O)N3c3cccc(I)c3F)ccc2[nH]1` (stereo not shown) [Entry 362, methyl {5-[2-(2-fluoro-3-iodophenyl)-1-hydroxy-3-oxo-2,3-dihydro-1H-isoindol-1-yl]-1H-benzimidazol-2-yl}carbamate], the IC50 on B-Raf and on c-Raf was below 100 nM in each case.

Take `C#Cc1ccc(F)c(N2C(=O)c3ccccc3C2(O)c2ccc3nc(NC(=O)OC)[nH]c3c2)c1` (stereo not shown) [Entry 363, methyl {6-[2-(5-ethynyl-2-fluorophenyl)-1-hydroxy-3-oxo-2,3-dihydro-1H-isoindol-1-yl]-1H-benzimidazol-2-yl}carbamate]: the IC50 on B-Raf and at c-Raf was below 100 nM each time.

For `C#Cc1cccc(N2C(=O)c3ccccc3C2(O)c2ccc3[nH]c(Nc4ncccn4)nc3c2)c1F` (stereo not shown) [Entry 364, 2-(3-ethynyl-2-fluorophenyl)-3-hydroxy-3-[2-(pyrimidin-2-ylamino)-1H-benzimidazol-5-yl]-2,3-dihydro-1H-isoindol-1-one], the IC50 on B-Raf and on c-Raf was below 100 nM in each case.

With `COC(=O)Nc1nc2cc(C3(O)c4ccccc4C(=O)N3c3cc(C)ccc3C)ccc2[nH]1` (stereo not shown) [Entry 365, methyl {5-[2-(2,5-dimethylphenyl)-1-hydroxy-3-oxo-2,3-dihydro-1H-isoindol-1-yl]-1H-benzimidazol-2-yl}carbamate], the IC50 at B-Raf and at c-Raf was below 100 nM throughout.

Consider `C=Cc1cccc(N2C(=O)c3ccccc3C2(O)c2ccc3[nH]c(NC(=O)OC)nc3c2)c1F` (stereo not shown) [Entry 366, methyl {5-[2-(3-ethenyl-2-fluorophenyl)-1-hydroxy-3-oxo-2,3-dihydro-1H-isoindol-1-yl]-1H-benzimidazol-2-yl}carbamate], for which the half-inhibitory concentration (IC50) on B-Raf and at c-Raf was below 100 nM throughout.

Turning to `COC(=O)Nc1nc2ccc(C3(O)c4ccccc4C(=O)N3c3cccc(OC)c3F)cc2[nH]1` (stereo not shown) [Entry 367, methyl (6-{2-[2-fluoro-3-(methyloxy)phenyl]-1-hydroxy-3-oxo-2,3-dihydro-1H-isoindol-1-yl}-1H-benzimidazol-2-yl)carbamate], the 50% inhibitory concentration (IC50) on B-Raf is below 100 nM; at c-Raf, 100 to 1000 nM.

With `COC(=O)Nc1nc2cc(C3(O)c4ccccc4C(=O)N3c3cc(OC)ccc3C)ccc2[nH]1` (stereo not shown) [Entry 368, methyl (5-{1-hydroxy-2-[2-methyl-5-(methyloxy)phenyl]-3-oxo-2,3-dihydro-1H-isoindol-1-yl}-1H-benzimidazol-2-yl)carbamate], the IC50 at B-Raf and on c-Raf was below 100 nM in each case.

Consider `C#Cc1cccc(N2C(=O)c3cccc(F)c3C2(O)c2ccc3[nH]c(NC(=O)OC)nc3c2)c1F` (stereo not shown) [Entry 369, methyl {5-[2-(3-ethynyl-2-fluorophenyl)-7-fluoro-1-hydroxy-3-oxo-2,3-dihydro-1H-isoindol-1-yl]-1H-benzimidazol-2-yl}carbamate], for which the half-inhibitory concentration (IC50) at B-Raf and at c-Raf was below 100 nM throughout.

Take `CC#Cc1cccc(N2C(=O)c3ccccc3C2(O)c2ccc3[nH]c(NC(=O)OC)nc3c2)c1F` (stereo not shown) [Entry 370, methyl {5-[2-(2-fluoro-3-prop-1-yn-1-ylphenyl)-1-hydroxy-3-oxo-2,3-dihydro-1H-isoindol-1-yl]-1H-benzimidazol-2-yl}carbamate]: the IC50 at B-Raf and on c-Raf was 100 to 1000 nM throughout.

As to `COC(=O)Nc1nc2cc(C3(O)c4c(F)cccc4C(=O)N3c3cc(Cl)ccc3C)ccc2[nH]1` (stereo not shown) [Entry 371, methyl {5-[2-(5-chloro-2-methylphenyl)-7-fluoro-1-hydroxy-3-oxo-2,3-dihydro-1H-isoindol-1-yl]-1H-benzimidazol-2-yl}carbamate], the IC50 on B-Raf and at c-Raf was below 100 nM each time.

Take `C#Cc1cccc(N2C(=O)c3ccccc3C2(O)c2ccc3[nH]c(NC(=O)OC)nc3c2)c1C` (stereo not shown) [Entry 372, methyl {5-[2-(3-ethynyl-2-methylphenyl)-1-hydroxy-3-oxo-2,3-dihydro-1H-isoindol-1-yl]-1H-benzimidazol-2-yl}carbamate]: the IC50 on B-Raf and on c-Raf was below 100 nM in each case.

Consider `COc1cccc(N2C(=O)c3ccccc3C2(O)c2ccc3nc(Nc4ncccn4)[nH]c3c2)c1` (stereo not shown) [Entry 373, 3-hydroxy-2-[3-(methyloxy)phenyl]-3-[2-(pyrimidin-2-ylamino)-1H-benzimidazol-6-yl]-2,3-dihydro-1H-isoindol-1-one], for which the IC50 on B-Raf and at c-Raf was below 100 nM in each case.

With `Cc1cccc(N2C(=O)c3ccccc3C2(O)c2ccc3nc(Nc4ncccn4)[nH]c3c2)c1` (stereo not shown) [Entry 374, 3-hydroxy-2-(3-methylphenyl)-3-[2-(pyrimidin-2-ylamino)-1H-benzimidazol-6-yl]-2,3-dihydro-1H-isoindol-1-one], the IC50 at B-Raf and at c-Raf was below 100 nM each time.

With `Cc1ccc(Cl)cc1N1C(=O)c2ccccc2C1(O)c1ccc2nc(Nc3ncccn3)[nH]c2c1` (stereo not shown) [Entry 375, 2-(5-chloro-2-methylphenyl)-3-hydroxy-3-[2-(pyrimidin-2-ylamino)-1H-benzimidazol-6-yl]-2,3-dihydro-1H-isoindol-1-one], the IC50 at B-Raf and on c-Raf was below 100 nM each time.

Regarding `COC(=O)Nc1nc2ccc(C3(O)c4c(F)ccc(F)c4C(=O)N3c3cc(Cl)ccc3C)cc2[nH]1` (stereo not shown) [Entry 376, methyl {6-[2-(5-chloro-2-methylphenyl)-4,7-difluoro-1-hydroxy-3-oxo-2,3-dihydro-1H-isoindol-1-yl]-1H-benzimidazol-2-yl}carbamate], the IC50 on B-Raf and at c-Raf was below 100 nM each time.

On to `C#Cc1cccc(N2C(=O)c3ccccc3C2c2ccc3[nH]c(NC(=O)OC)nc3c2)c1F` (stereo not shown) [Entry 377, methyl {5-[2-(3-ethynyl-2-fluorophenyl)-3-oxo-2,3-dihydro-1H-isoindol-1-yl]-1H-benzimidazol-2-yl}carbamate], for which the IC50 at B-Raf and at c-Raf was below 100 nM in each case.

`O=C1c2ccccc2C(O)(c2ccc3[nH]c(Nc4ccc(Cl)nn4)nc3c2)N1c1cccc(Cl)c1F` (stereo not shown) [Entry 378, 2-(3-chloro-2-fluorophenyl)-3-{2-[(6-chloropyridazin-3-yl)amino]-1H-benzimidazol-5-yl}-3-hydroxy-2,3-dihydro-1H-isoindol-1-one]: the IC50 at B-Raf and on c-Raf was 100 to 1000 nM each time.

Take `O=C1c2c(F)ccc(F)c2C(O)(c2ccc3[nH]c(Nc4ncccn4)nc3c2)N1c1cccc(Cl)c1F` (stereo not shown) [Entry 379, 2-(3-chloro-2-fluorophenyl)-4,7-difluoro-3-hydroxy-3-[2-(pyrimidin-2-ylamino)-1H-benzimidazol-5-yl]-2,3-dihydro-1H-isoindol-1-one]: the IC50 on B-Raf and at c-Raf was below 100 nM in each case.

For the molecule `COC(=O)Nc1nc2cc(C3(O)c4ccccc4C(=O)N3c3cc(C)ccc3F)ccc2[nH]1` (stereo not shown) [Entry 380, methyl {5-[2-(2-fluoro-5-methylphenyl)-1-hydroxy-3-oxo-2,3-dihydro-1H-isoindol-1-yl]-1H-benzimidazol-2-yl}carbamate], the IC50 on B-Raf and at c-Raf was below 100 nM in each case.

In the case of `COC(=O)Nc1nc2cc(C3(O)c4ccccc4C(=O)N3c3cc(OC)ccc3F)ccc2[nH]1` (stereo not shown) [Entry 381, methyl (5-{2-[2-fluoro-5-(methyloxy)phenyl]-1-hydroxy-3-oxo-2,3-dihydro-1H-isoindol-1-yl}-1H-benzimidazol-2-yl)carbamate], the IC50 on B-Raf and on c-Raf was below 100 nM throughout.

Turning to `COC(=O)Nc1nc2cc(C3(O)c4ccccc4C(=O)N3c3cc(C)ccc3OC)ccc2[nH]1` (stereo not shown) [Entry 382, methyl (5-{1-hydroxy-2-[5-methyl-2-(methyloxy)phenyl]-3-oxo-2,3-dihydro-1H-isoindol-1-yl}-1H-benzimidazol-2-yl)carbamate], the half-inhibitory concentration (IC50) on B-Raf and on c-Raf was below 100 nM in each case.

`C#Cc1cc(C)cc(N2C(=O)c3ccccc3C2(O)c2ccc3[nH]c(NC(=O)OC)nc3c2)c1` (stereo not shown) [Entry 383, methyl {5-[2-(3-ethynyl-5-methylphenyl)-1-hydroxy-3-oxo-2,3-dihydro-1H-isoindol-1-yl]-1H-benzimidazol-2-yl}carbamate]: the IC50 at B-Raf and at c-Raf was below 100 nM in each case.

On to `O=C1c2ccccc2C(O)(c2ccc3[nH]c(Nc4ncc(Cl)cn4)nc3c2)N1c1cccc(Cl)c1F` (stereo not shown) [Entry 384, 2-(3-chloro-2-fluorophenyl)-3-{2-[(5-chloropyrimidin-2-yl)amino]-1H-benzimidazol-5-yl}-3-hydroxy-2,3-dihydro-1H-isoindol-1-one], for which the IC50 at B-Raf and at c-Raf was below 100 nM throughout.

Take `Cc1ccnc(Nc2nc3cc(C4(O)c5ccccc5C(=O)N4c4cccc(Cl)c4F)ccc3[nH]2)n1` (stereo not shown) [Entry 385, 2-(3-chloro-2-fluorophenyl)-3-hydroxy-3-{2-[(4-methylpyrimidin-2-yl)amino]-1H-benzimidazol-5-yl}-2,3-dihydro-1H-isoindol-1-one]: the IC50 at B-Raf and at c-Raf was below 100 nM each time.

Consider `COc1cc(OC)nc(Nc2nc3cc(C4(O)c5ccccc5C(=O)N4c4cccc(Cl)c4F)ccc3[nH]2)n1` (stereo not shown) [Entry 386, 3-(2-{[4,6-bis(methyloxy)pyrimidin-2-yl]amino}-1H-benzimidazol-5-yl)-2-(3-chloro-2-fluorophenyl)-3-hydroxy-2,3-dihydro-1H-isoindol-1-one], for which the IC50 at B-Raf and at c-Raf was below 100 nM each time.

As to `COc1cc(C)nc(Nc2nc3cc(C4(O)c5ccccc5C(=O)N4c4cccc(Cl)c4F)ccc3[nH]2)n1` (stereo not shown) [Entry 387, 2-(3-chloro-2-fluorophenyl)-3-hydroxy-3-(2-{[4-methyl-6-(methyloxy)pyrimidin-2-yl]amino}-1H-benzimidazol-5-yl)-2,3-dihydro-1H-isoindol-1-one], the IC50 at B-Raf and at c-Raf was below 100 nM in each case.
